The target in one assay is human Chk2 kinase (Homo sapiens, UniProt O96017). Put plainly: biochemical.
The subject of a further assay is GBM LN18 cells. Kind of assay: In vitro cell viability assay (Cell Titre Glo, 72 hours). It counts as cell-based. As to conditions: Homo sapiens, LN-18, read-out: LN18 pIC50 (converted). How it is done:
GBM LN18 cells were incubated with increasing concentrations of selected compounds of the invention for 72 hours prior to the measurement of ATP in metabolically viable cells with the Cell Titre® Glo Luminescent reagent. A 10-point concentration response curve up to a maximum concentration of 10 μM was tested.
The percent (%) effect i.e., inhibition at each concentration of compound was calculated based on, and relative to the amount of inhibition produced in the vehicle control and inhibited control wells contained within each plate.

The target of another assay is T1, human Chk1 kinase (Homo sapiens, UniProt O14757).
T1 sequence (O14757 1-476): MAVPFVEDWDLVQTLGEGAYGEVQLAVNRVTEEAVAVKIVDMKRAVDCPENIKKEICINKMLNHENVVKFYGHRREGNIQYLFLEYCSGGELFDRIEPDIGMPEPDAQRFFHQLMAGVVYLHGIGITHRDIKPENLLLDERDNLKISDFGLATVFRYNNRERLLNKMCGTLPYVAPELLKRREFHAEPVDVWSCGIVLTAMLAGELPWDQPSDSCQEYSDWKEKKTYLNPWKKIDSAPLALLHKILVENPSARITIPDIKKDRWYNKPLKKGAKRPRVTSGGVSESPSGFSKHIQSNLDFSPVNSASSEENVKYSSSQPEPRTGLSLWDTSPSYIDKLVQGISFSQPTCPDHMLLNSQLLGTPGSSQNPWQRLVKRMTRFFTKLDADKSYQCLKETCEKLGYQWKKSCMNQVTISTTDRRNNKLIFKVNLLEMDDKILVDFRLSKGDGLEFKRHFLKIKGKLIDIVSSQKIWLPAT
Kind of assay: biochemical.

A value given as a limit tells only on which side of the number the result lay.

Sequence of human Chk2 kinase (O96017 whole entry): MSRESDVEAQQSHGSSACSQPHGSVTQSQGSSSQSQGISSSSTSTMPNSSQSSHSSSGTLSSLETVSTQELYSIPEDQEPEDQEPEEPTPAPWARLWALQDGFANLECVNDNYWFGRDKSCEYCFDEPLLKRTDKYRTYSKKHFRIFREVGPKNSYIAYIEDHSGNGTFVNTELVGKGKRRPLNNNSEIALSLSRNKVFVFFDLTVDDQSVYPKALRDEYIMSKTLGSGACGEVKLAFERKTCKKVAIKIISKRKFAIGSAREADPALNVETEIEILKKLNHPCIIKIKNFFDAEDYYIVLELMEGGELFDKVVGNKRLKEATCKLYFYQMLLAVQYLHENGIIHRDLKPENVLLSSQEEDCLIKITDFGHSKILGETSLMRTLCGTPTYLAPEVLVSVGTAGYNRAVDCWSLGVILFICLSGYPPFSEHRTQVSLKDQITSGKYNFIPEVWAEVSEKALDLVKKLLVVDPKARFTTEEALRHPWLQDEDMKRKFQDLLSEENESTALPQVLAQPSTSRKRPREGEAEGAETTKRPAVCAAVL

As to `CN(C)[C@@H]1CCN(c2cnc(-n3cnc(Nc4cnc(C#N)cn4)c3)cn2)C1` [Example 52, (R)-5-((1-(5-(3-(Dimethylamino)pyrrolidin-1-yl)pyrazin-2-yl)-1H-imidazol-4-yl)amino)pyrazine-2-carbonitrile], the values for the IC50 on human Chk2 kinase, in the assay with GBM LN18 cells and against human Chk1 kinase were 10000 to 100000 nM, 1000 to 10000 nM and 31.6 to 100 nM, respectively.
For `CN1C[C@@H]2CN(c3ccc(-n4cnc(Nc5cnc(C#N)cn5)c4)cc3)[C@@H]2C1` [Example 67, 5-((1-(4-((1R,5S)-3-Methyl-3,6-diazabicyclo[3.2.0]heptan-6-yl)phenyl)-1H-imidazol-4-yl)amino)pyrazine-2-carbonitrile], the IC50 at human Chk2 kinase was 10000 to 100000 nM; in the assay on GBM LN18 cells it was less than 1000 nM; on human Chk1 kinase, 31.6 to 100 nM.
On the same counts, the results for `CN1C[C@H]2CN(c3ccc(-n4cnc(Nc5cnc(C#N)cn5)c4)cc3)[C@H]2C1` [Example 68, 5-((1-(4-((1S,5R)-3-Methyl-3,6-diazabicyclo[3.2.0]heptan-6-yl)phenyl)-1H-imidazol-4-yl)amino)pyrazine-2-carbonitrile] are 10000 to 100000 nM, less than 1000 nM and 31.6 to 100 nM.
On the same counts, the results for `CN1CC2(CCN(c3ccc(-n4cnc(Nc5cnc(C#N)cn5)c4)cc3)C2)C1` [Example 69, 5-((1-(4-(2-Methyl-2,6-diazaspiro[3.4]octan-6-yl)phenyl)-1H-imidazol-4-yl)amino)pyrazine-2-carbonitrile] are 10000 to 100000 nM, 1000 to 10000 nM and 10 to 31.6 nM.
On the same counts, the results for `CN(C)[C@@H]1CCN(c2ccc(-n3cnc(Nc4cnc(C#N)cn4)c3)c(C(F)(F)F)c2)C1` [Example 71, (R)-5-((1-(4-(3-(Dimethylamino)pyrrolidin-1-yl)-2-(trifluoromethyl)phenyl)-1H-imidazol-4-yl)amino)pyrazine-2-carbonitrile] are greater than 100000 nM, less than 1000 nM and 100 to 316 nM.
As for `C[C@H]1C[C@@H](N(C)C)CN1c1ccc(-n2cnc(Nc3cnc(C#N)cn3)c2)cc1` [Example 75, 5-((1-(4-((2S,4R)-4-(Dimethylamino)-2-methylpyrrolidin-1-yl)phenyl)-1H-imidazol-4-yl)amino)pyrazine-2-carbonitrile], the IC50 in the assay on GBM LN18 cells was less than 1000 nM.
For the compound `C[C@@H]1CN(c2ccc(-n3cnc(Nc4cnc(C#N)cn4)c3)cc2)C[C@@H]1N(C)C` [Example 76, 5-((1-(4-((3R,4R)-3-(Dimethylamino)-4-methylpyrrolidin-1-yl)phenyl)-1H-imidazol-4-yl)amino)pyrazine-2-carbonitrile], the figures for the IC50 on human Chk2 kinase, in the assay with GBM LN18 cells and on human Chk1 kinase were 10000 to 100000 nM, less than 1000 nM and 10 to 31.6 nM, respectively.
The matching figures for `CN(C)[C@@H]1CCN(c2ccc(-n3cnc(Nc4cnc(C#N)cn4)c3)cc2F)C1` [Example 79, (R)-5-((1-(4-(3-(Dimethylamino)pyrrolidin-1-yl)-3-fluorophenyl)-1H-imidazol-4-yl)amino)pyrazine-2-carbonitrile]: 1000 to 10000 nM, less than 1000 nM and less than 10 nM.
Turning to `CN(C)c1cc(N2CC[C@@H](N(C)C)C2)ccc1-n1cnc(Nc2cnc(C#N)cn2)c1` [Example 83, (R)-5-((1-(2-(Dimethylamino)-4-(3-(dimethylamino)pyrrolidin-1-yl)phenyl)-1H-imidazol-4-yl)amino)pyrazine-2-carbonitrile], the IC50 is 10000 to 100000 nM against human Chk2 kinase, 1000 to 10000 nM in the assay with GBM LN18 cells and 316 to 1000 nM on human Chk1 kinase.
As for `CCN(C)[C@@H]1CCN(c2ccc(-n3cnc(Nc4cnc(C#N)cn4)c3)cc2)C1` [Example 89, (R)-5-((1-(4-(3-(Ethyl(methyl)amino)pyrrolidin-1-yl)phenyl)-1H-imidazol-4-yl)amino)pyrazine-2-carbonitrile], the IC50 against human Chk2 kinase was 1000 to 10000 nM; in the assay on GBM LN18 cells, less than 1000 nM; at human Chk1 kinase, less than 10 nM.
The matching figures for `CCN(C)[C@@H]1CCN(c2ccc(-n3cnc(Nc4cnc(C#N)cn4)c3)nc2)C1` [Example 90, (R)-5-((1-(5-(3-(Ethyl(methyl)amino)pyrrolidin-1-yl)pyridin-2-yl)-1H-imidazol-4-yl)amino)pyrazine-2-carbonitrile]: 1000 to 10000 nM, less than 1000 nM and 10 to 31.6 nM.
In the case of `CC(C)N[C@@H]1CCN(c2ccc(-n3cnc(Nc4cnc(C#N)cn4)c3)cc2)C1` [Example 96, (R)-5-((1-(4-(3-(Isopropylamino)pyrrolidin-1-yl)phenyl)-1H-imidazol-4-yl)amino)pyrazine-2-carbonitrile], the figures for the IC50 at human Chk2 kinase, with GBM LN18 cells and against human Chk1 kinase were 10000 to 100000 nM, less than 1000 nM and 10 to 31.6 nM, respectively.
The matching figures for `C[N+](C)([O-])[C@@H]1CCN(c2ccc(-n3cnc(Nc4cnc(C#N)cn4)c3)cc2)C1` [Example 141, (R)-1-(4-(4-((5-Cyanopyrazin-2-yl)amino)-1H-imidazol-1-yl)phenyl)-N,N-dimethylpyrrolidin-3-amine oxide]: 10000 to 100000 nM, 1000 to 10000 nM and 100 to 316 nM.
With `N#Cc1cnc(Nc2cn(-c3ccc(OCCN)cc3)cn2)cn1` [Example 150, 5-((1-(4-(2-Aminoethoxy)phenyl)-1H-imidazol-4-yl)amino)pyrazine-2-carbonitrile], the IC50 with GBM LN18 cells is 1000 to 10000 nM.
Regarding `N#Cc1cnc(Nc2cn(-c3ccc(N4C[C@H](N)[C@@H](F)C4)cc3)cn2)cn1` [Example 152, 5-((1-(4-((3S,4S)-3-Amino-4-fluoropyrrolidin-1-yl)phenyl)-1H-imidazol-4-yl)amino)pyrazine-2-carbonitrile], the IC50 against human Chk2 kinase is 10000 to 100000 nM; in the assay with GBM LN18 cells, 1000 to 10000 nM; at human Chk1 kinase it was 10 to 31.6 nM.
As to `N#Cc1cnc(Nc2cn(-c3ccc(N4C[C@@H](F)[C@@H](N)C4)cc3)cn2)cn1` [Example 157, 5-((1-(4-((3S,4R)-3-Amino-4-fluoropyrrolidin-1-yl)phenyl)-1H-imidazol-4-yl)amino)pyrazine-2-carbonitrile], the IC50 is 10000 to 100000 nM at human Chk2 kinase, 1000 to 10000 nM in the assay with GBM LN18 cells and less than 10 nM against human Chk1 kinase.
The matching figures for `N#Cc1cnc(Nc2cn(-c3ccc(N4CC(CN)C4)cc3)cn2)cn1` [Example 158, 5-((1-(4-(3-(Aminomethyl)azetidin-1-yl)phenyl)-1H-imidazol-4-yl)amino)pyrazine-2-carbonitrile]: 10000 to 100000 nM, 1000 to 10000 nM and 10 to 31.6 nM.
With `CN1CC2(CC(Oc3cccc(-n4cnc(Nc5cnc(C#N)cn5)c4)c3)C2)C1` [Example 175, 5-((1-(3-((2-Methyl-2-azaspiro[3.3]heptan-6-yl)oxy)phenyl)-1H-imidazol-4-yl)amino)pyrazine-2-carbonitrile], the IC50 was in the range of 10000 to 100000 nM on human Chk2 kinase and 31.6 to 100 nM against human Chk1 kinase.
The matching figures for `CN1[C@@H]2COC[C@H]1CN(c1ccc(-n3cnc(Nc4cnc(C#N)cn4)c3)cc1)C2` [Example 177, 5-((1-(4-((1R,5S)-9-Methyl-3-oxa-7,9-diazabicyclo[3.3.1]nonan-7-yl)phenyl)-1H-imidazol-4-yl)amino)pyrazine-2-carbonitrile]: 10000 to 100000 nM and 100 to 316 nM.
On the same counts, the results for `CN1CC2(CC(Oc3ccc(-n4cnc(Nc5cnc(C#N)cn5)c4)cc3)C2)C1` [Example 178, 5-((1-(4-((2-Methyl-2-azaspiro[3.3]heptan-6-yl)oxy)phenyl)-1H-imidazol-4-yl)amino)pyrazine-2-carbonitrile] are 10000 to 100000 nM and 31.6 to 100 nM.
On the same counts, the results for `CCN(CC)C1(c2ccc(-n3cnc(Nc4cnc(C#N)cn4)c3)cc2)CC1` [Example 179, 5-((1-(4-(1-(Diethylamino)cyclopropyl)phenyl)-1H-imidazol-4-yl)amino)pyrazine-2-carbonitrile] are greater than 100000 nM and 100 to 316 nM.
With `COc1cc(OC2CC3(C2)CN(C)C3)ccc1-n1cnc(Nc2cnc(C#N)cn2)c1` [Example 180, 5-((1-(2-Methoxy-4-((2-methyl-2-azaspiro[3.3]heptan-6-yl)oxy)phenyl)-1H-imidazol-4-yl)amino)pyrazine-2-carbonitrile], the IC50 on human Chk2 kinase was 10000 to 100000 nM; on human Chk1 kinase, 31.6 to 100 nM.
The matching figures for `N#Cc1cnc(Nc2cn(-c3ccc(N4CCN(C5CC(F)(F)C5)CC4)cc3)cn2)cn1` [Example 181, 5-((1-(4-(4-(3,3-Difluorocyclobutyl)piperazin-1-yl)phenyl)-1H-imidazol-4-yl)amino)pyrazine-2-carbonitrile]: greater than 100000 nM and 31.6 to 100 nM.
The matching figures for `N#Cc1cnc(Nc2cn(-c3ccc(N4CCN(C5COC5)CC4)cc3)cn2)cn1` [Example 182, 5-((1-(4-(4-(Oxetan-3-yl)piperazin-1-yl)phenyl)-1H-imidazol-4-yl)amino)pyrazine-2-carbonitrile]: 10000 to 100000 nM and 31.6 to 100 nM.
The matching figures for `CC(C)N1CCN(c2ccc(-n3cnc(Nc4cnc(C#N)cn4)c3)cc2)CC1` [Example 186, 5-((1-(4-(4-Isopropylpiperazin-1-yl)phenyl)-1H-imidazol-4-yl)amino)pyrazine-2-carbonitrile]: greater than 100000 nM and 100 to 316 nM.

The record behind these values is US20260132140A1, “IMIDAZOLYL-AMINO-PYRAZINE-CARBONITRILS AS CHK-1 INHIBITORS” (BenevolentAI Bio Limited, priority 2022, published 2026).
